Reference: patent US20200331950A1, “SGLTS INHIBITOR AND APPLICATION THEREOF” (SHANDONG DANHONG PHARMACEUTICAL CO., LTD., priority 2018, published 2020)
Marks after values point to notes of the source that are not given here.

Legend:
Human-SGLT2 = target: T1, Human-SGLT2 (Homo sapiens, UniProt P31639); assay: SGLT2 glucose transport test ([14C]-labeled methyl a-D-glucopyranoside uptake); type: cell-based; conditions: cells stably expressing Human-SGLT2; 37° C., 2 hours
T1 sequence (P31639 1-672): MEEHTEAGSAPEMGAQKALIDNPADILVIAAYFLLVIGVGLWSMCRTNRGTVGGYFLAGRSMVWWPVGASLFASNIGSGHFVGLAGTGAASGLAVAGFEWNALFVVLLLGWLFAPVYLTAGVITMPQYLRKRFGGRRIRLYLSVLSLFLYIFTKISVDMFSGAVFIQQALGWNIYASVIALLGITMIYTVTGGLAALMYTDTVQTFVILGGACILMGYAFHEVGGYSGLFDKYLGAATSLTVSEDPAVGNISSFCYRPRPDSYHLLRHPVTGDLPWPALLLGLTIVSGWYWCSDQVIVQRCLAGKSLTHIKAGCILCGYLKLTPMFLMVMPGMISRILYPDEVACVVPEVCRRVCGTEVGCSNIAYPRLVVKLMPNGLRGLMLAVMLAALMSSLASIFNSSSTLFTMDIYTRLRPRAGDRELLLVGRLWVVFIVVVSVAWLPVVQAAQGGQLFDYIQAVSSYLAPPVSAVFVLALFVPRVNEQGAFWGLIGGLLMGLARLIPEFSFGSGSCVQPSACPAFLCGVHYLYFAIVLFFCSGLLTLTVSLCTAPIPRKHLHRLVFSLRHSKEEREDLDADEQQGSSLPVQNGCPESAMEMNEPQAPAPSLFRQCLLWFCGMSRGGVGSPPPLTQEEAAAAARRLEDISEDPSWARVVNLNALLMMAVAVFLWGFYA
Description: Biological Activity Experiment 2: SGLT2 Glucose Transport Test.
(§1) 1. Purpose of the Experiment:
The effect of the compound on the glucose transport activity of SGLT2 transporter was detected by measuring the amount of [^14C]-labeled glucose entering cells with high expression of Human-SGLT2.
The cells stably expressing Human-SGLT2 were constructed by Wuxi AppTec(Shanghai) Co., Ltd. SGLT2 cells were laid in 96-well cell culture plate (Greiner) and cultured overnight in 5% CO2 environment at 37° C.
2.2. SGLT2 Glucose Transport Test.
(§2) 1) Experimental buffer, including: 10 mM 4-hydroxyethylpiperazineethanesulfonic acid (HEPES), 1.2 mM magnesium chloride (MgCl2), 4.7 mM potassium chloride (KCl), 2.2 mM calcium chloride (CaCl2) and 120 mM sodium chloride (NaCl).
2) Stop buffer, including: 10 mM 4-hydroxyethylpiperazineethanesulfonic acid (HEPES), 1.2 mM magnesium chloride (MgCl2), 4.7 mM potassium chloride (KCl), 2.2 mM calcium chloride (CaCl2), 120 mM sodium chloride (NaCl) and 1 μM LX4211.
3) Compounds were serially diluted in 100% dimethyl sulfoxide (DMSO) starting at 10 uM and make a 5-folds, 8 points serials compound dilutions.
4) 6 μM [^14C]-labeled methyl a-D-lucopyranosid was prepared with the experimental buffer.
5) The cells were treated with 49 uL of the experimental buffer, 1 μL of the gradient diluted compound and 50 μL of the 6 μM [^14C]-labeled methyl a-D-lucopyranosid solution at 37° C. for 2 hours.
6) The solution was sucked out from holes, and the cells were rinsed with the stop buffer for 3 times.
7) The cells were lysed with 50 ul of 10% sodium hydroxide solution, the cell lysate was sucked into a scintillation tube, into which 2 mL scintillation solution was then added.
8) The data were read with an isotope detector Tricarb.
9) The IC50 value of the tested compound was obtained by the calculation formula: log(inhibitor) vs. response—Variable slope, using GraphPad Prism 5.0 software.

SD rats [1] = assay: Oral glucose tolerance test (OGTT) in rats, first time; type: in vivo; conditions: first study, male SD rats, 10 mg/kg single intragastric administration
Description: Experimental Example 3. Study on In Vivo Efficacy of Oral Glucose Tolerance Test (OGTT) in Rats: Study on the In Vivo Efficacy of Oral Glucose Tolerance Test (OGTT) in Rats for the First Time
(§3) The experimental animals were allowed to adapt to the environment in the animal room for one week after they arrived.
(§4) The animals fasted in the metabolic cage for 18 hours, then were given drugs or vehicle (2 ml/kg) according to the above table, and subsequently were immediately given 50% glucose solution (2 g/kg, 4 ml/kg).
(§5) 2 hours after the administration of glucose solution, feed intake was restored. Blood samples were taken at 0 min, 15 min, 30 min, 45 min, 60 min and 120 min respectively, and urine samples were collected at 0-24 h to test blood glucose, urine glucose (mg/200 g) and urine volume respectively.
(§6) All values are represented as averages. Statistical analysis was performed using Graphpad Prism 6 one-way analysis of variance and Tukey's multiple comparison test. P value of less than 0.05 is considered statistically significant.

[2] = In vivo pharmacokinetics in rats; conditions: male SD rats
From the text: Study on the In Vivo Pharmacokinetics in Rats
The purpose of the experiment: Male SD rats were used as test animals and were given a single administration to determine the plasma concentration of the compound and evaluate the pharmacokinetic behavior.
Experimental method: Six healthy adult male SD rats were divided into 2 groups, with 3 rats in an intravenous injection group and 3 rats in an oral administration group. In the intravenous injection group, the test compound was mixed with an appropriate amount of vehicle (10% N-methyl pyrrolidone (NMP)/10% polyethylene glycol-15 hydroxystearate (available from solutol)/80% water), then vortexed and sonicated to prepare 0.2 mg/mL clear solution, which was filtered by microporous membrane. In the oral administration group, 10% N-methyl pyrrolidone (NMP)/10% polyethylene glycol-15 hydroxy stearate (available from solutol)/80% water was used as a vehicle and mixed with the test compound, then vortexed and sonicated to prepare 0.40 mg/mL clear solution. The rats were given intravenous administration at a dose of 1 mg/kg or oral administration at a dose of 2 mg/kg. Whole blood was collected at a certain period of time to prepare the plasma. The drug concentration of the plasma was analyzed by LC-MS/MS method, and the pharmacokinetic parameters were calculated using Phoenix WinNonlin software (Pharsight Company, USA).

SD rats [3] = assay: Oral glucose tolerance test (OGTT) in rats, second time; type: in vivo; conditions: second study, male SD rats, 10 mg/kg single intragastric administration
Description: Study on the In Vivo Efficacy of Oral Glucose Tolerance Test (OGTT) in Rats for the Second Time:
as §3, §4, §5, §6

Human-SGLT1 = target: T2, Human-SGLT1 (Homo sapiens, UniProt P13866); assay: SGLT1 glucose transport test ([14C]-labeled methyl a-D-glucopyranoside uptake); type: cell-based; conditions: cells stably expressing Human-SGLT1; 37° C., 2 hours
T2 sequence (P13866 1-664): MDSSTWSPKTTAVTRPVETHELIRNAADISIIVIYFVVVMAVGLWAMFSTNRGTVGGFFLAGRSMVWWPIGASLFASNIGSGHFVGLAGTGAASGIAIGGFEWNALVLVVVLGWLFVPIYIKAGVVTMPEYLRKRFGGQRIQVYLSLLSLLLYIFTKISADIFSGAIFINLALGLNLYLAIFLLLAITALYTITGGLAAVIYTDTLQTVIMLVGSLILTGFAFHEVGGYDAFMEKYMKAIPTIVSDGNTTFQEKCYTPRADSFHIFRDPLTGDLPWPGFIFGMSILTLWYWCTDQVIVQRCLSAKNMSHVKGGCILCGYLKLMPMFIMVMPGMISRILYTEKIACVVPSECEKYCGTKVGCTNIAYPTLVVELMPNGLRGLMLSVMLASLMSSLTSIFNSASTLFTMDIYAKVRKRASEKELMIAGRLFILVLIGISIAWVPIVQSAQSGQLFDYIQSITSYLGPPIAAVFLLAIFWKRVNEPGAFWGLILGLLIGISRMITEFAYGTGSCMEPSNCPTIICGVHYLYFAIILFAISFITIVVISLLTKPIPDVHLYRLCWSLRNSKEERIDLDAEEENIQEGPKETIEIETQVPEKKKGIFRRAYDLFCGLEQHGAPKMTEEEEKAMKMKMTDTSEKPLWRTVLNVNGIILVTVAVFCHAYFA
From the text: Biological Activity Experiment 1: SGLT1 Glucose Transport Test.
as §1
The effect of the compound on the glucose transport activity of SGLT1 transporter was detected by measuring the amount of [′C]-labeled glucose entering cells with high expression of Human-SGLT1.
The cells stably expressing Human-SGLT1 were constructed by Wuxi AppTec(Shanghai) Co., Ltd. SGLT1 cells were laid in Cytostar-T (PerkinElmer) 96-well cell culture plate and cultured overnight in 5% CO2 environment at 37° C.
2.2. SGLT1 Glucose Transport Test.
as §2
2) Compounds were serially diluted in 100% dimethyl sulfoxide (DMSO) starting at 1 mM and make a 5-folds, 8 points serials compound dilutions.
3) 3 μM [′^4C]-labeled methyl a-D-glucopyranoside was prepared with the experimental buffer.
4) The cells were treated with 49 uL of the experimental buffer, 1 μL of the gradient diluted compound and 50 μL of the 3 μM [^14C]-labeled methyl a-D-lucopyranosid solution at 37° C. for 2 hours.
5) The data were read with an isotope detector Micro beta Reader.
6) The IC50 value of the tested compound was obtained by the calculation formula: log(inhibitor) vs. response—Variable slope, using GraphPad Prism 5.0 software.

Structure (SMILES) | IC50 (Human-SGLT2) | IC50 (Human-SGLT1) | other results
CCOc1ccc(Cc2cc([C@@H]3O[C@H](SC)[C@@H](O)[C@H](O)[C@H]3O)ccc2Cl)cc1 [Sotagliflozin, reference compound] | 1.15 nM | – | OGTT blood glucose level AUC0-2 hr (SD rats [1]; glucose 2 g/kg): 823 mmol/L/min; Urine glucose level (SD rats [1]; urine 0-24 h): 2424.0**** mg/200 g, BW; Urine volume (SD rats [1]; urine 0-24 h): 39.74**** mL/200 gBW; Oral DNAUC (AUCPO/Dose) ([2]; oral 2 mg/kg): 969 nM · h/mpk; clearance ([2]; rat, plasma, intravenous 1 mg/kg or oral 2 mg/kg, read-out: Cl (clearance rate)): 22.6 mL/min/kg; half-life ([2]; rat, plasma, intravenous 1 mg/kg or oral 2 mg/kg, read-out: T1/2 (half-life) (converted)): 1.27 h; Vd ([2]; rat, plasma, intravenous 1 mg/kg or oral 2 mg/kg, read-out: Vdss (distribution volume)): 2.01 L/kg; bioavailability ([2]; rat, plasma, intravenous 1 mg/kg, oral 2 mg/kg, read-out: F % (oral bioavailability)): 54.8%; Cmax ([2]; rat, single administration, intravenous 1 mg/kg or oral 2 mg/kg, plasma): 364 nM; OGTT blood glucose level AUC0-2 hr (SD rats [3]; glucose 2 g/kg): 790 mmol/L/min; Urine glucose level (SD rats [3]; urine 0-24 h): 2843.2**** mg/200 g, BW; Urine volume (SD rats [3]; urine 0-24 h): 26.4**** mL/200 g, BW
CS[C@H]1O[C@@H](c2ccc(C)c(Cc3ccc(C4=CCOCC4)s3)c2)[C@H](O)[C@@H](O)[C@@H]1O [WXD007] | 1.35 nM | 30.1 nM | –
COc1ccc(C2O[C@H](SC)[C@@H](O)[C@H](O)[C@H]2O)cc1Cc1ccc(C2=CCC(F)(F)CC2)cc1 (stereo partly drawn) [WXD008] | 5.4 nM | 17.2 nM | –
CS[C@H]1OC(c2ccc(F)c(Cc3ccc(C4=CCC(F)(F)CC4)cc3)c2)[C@H](O)[C@@H](O)[C@@H]1O (stereo partly drawn) [WXD009] | 4.68 nM | 233 nM | –

Further molecules by falling IC50 (Human-SGLT2), results first:

IC50 (Human-SGLT2) | IC50 (Human-SGLT1) | Structure (SMILES) | other results
1.78 nM | 21.9 nM | CS[C@H]1OC(c2ccc(C)c(Cc3ccc(C4=CCCCC4)cc3)c2)[C@H](O)[C@@H](O)[C@@H]1O (stereo partly drawn) [WXD005] | –
1.49 nM | 14.1 nM | CS[C@H]1OC(c2ccc(C)c(Cc3ccc(C4=CCOCC4)cc3)c2)[C@H](O)[C@@H](O)[C@@H]1O (stereo partly drawn) [WXD004] | –
1.02 nM | 39.2 nM | CS[C@H]1O[C@@H](c2ccc(C)c(Cc3ccc(C4=CCC(F)(F)CC4)s3)c2)[C@H](O)[C@@H](O)[C@@H]1O [WXD006] | –
1.01 nM | 55.6 nM | CS[C@H]1O[C@@H](c2ccc(C)c(Cc3ccc(C4=CCC5(CC4)OCCO5)cc3)c2)[C@H](O)[C@@H](O)[C@@H]1O [WXD002] | –
